“And” between values parts separate entries of the source, which are not always exact repeats. Equal entries are not always repeated. Where two headings read alike, the source gives them in different places.
Columns and labels:
[1] = system: E. coli KA797 cells carrying pUK21 with BlaC WT (Tat); assay: microbe, parasite or virus in culture; type: cell-based; conditions: in combination with 100 μg/ml carbenicillin
[2] = system: E. coli KA797 cells carrying pUK21 with CTX-M-14 WT (Tat); assay: microbe, parasite or virus in culture; type: cell-based; conditions: in combination with 100 μg/ml carbenicillin
[3] = system: E. coli KA797 cells carrying pUK21 with KPC-2 (Tat); assay: microbe, parasite or virus in culture; type: cell-based; conditions: in combination with 100 μg/ml carbenicillin
[4] = system: E. coli KA797 cells carrying pUK21 with NmcA (pelB/Sec); assay: microbe, parasite or virus in culture; type: cell-based; conditions: in combination with 25 μg/ml carbenicillin
[5] = system: E. coli KA797 cells carrying pUK21 with TEM-1 WT (Sec); assay: microbe, parasite or virus in culture; type: cell-based; conditions: in combination with 100 μg/ml carbenicillin
[6] = system: E. coli KA797 cells carrying pUK21 with BlaC I105R; type: cell-based, Escherichia coli; conditions: in combination with 100 μg/ml carbenicillin
[7] = system: E. coli KA797 cells carrying pUK21 with BlaC I105G; type: cell-based, Escherichia coli; conditions: in combination with 100 μg/ml carbenicillin
[8] = system: E. coli KA797 cells carrying pUK21 with CTX-M-14 Y105R; type: cell-based, Escherichia coli; conditions: in combination with 100 μg/ml carbenicillin
[9] = system: E. coli KA797 cells carrying pUK21 with CTX-M-14 Y105G; type: cell-based, Escherichia coli; conditions: in combination with 100 μg/ml carbenicillin
[10] = system: E. coli KA797 cells carrying pUK21 with TEM-1 Y105R; type: cell-based, Escherichia coli; conditions: in combination with 100 μg/ml carbenicillin
[11] = system: E. coli KA797 cells carrying pUK21 with TEM-1 Y105G; type: cell-based, Escherichia coli; conditions: in combination with 100 μg/ml carbenicillin
BlaC WT = molecular target: T1, BlaC WT (Mycobacterium tuberculosis, UniProt P9WKD3); type: biochemical
T1 construct: correspond to residue numbers 41-307 of BlaC (Uniprot entry P9WKD3-1); His tag with TEV cleavage site (N); made in house; host or cells: E. coli BL21 (DE3) pLysS
T1 sequence (P9WKD3 41-307): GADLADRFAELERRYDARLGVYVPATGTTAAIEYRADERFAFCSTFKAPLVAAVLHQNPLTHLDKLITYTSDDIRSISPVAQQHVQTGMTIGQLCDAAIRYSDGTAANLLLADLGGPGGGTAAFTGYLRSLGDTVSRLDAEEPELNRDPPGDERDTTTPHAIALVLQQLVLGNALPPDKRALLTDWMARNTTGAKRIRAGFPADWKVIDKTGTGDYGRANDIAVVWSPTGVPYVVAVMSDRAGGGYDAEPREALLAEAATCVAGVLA

CTX-M-14 WT = molecular target: T2, CTX-M-14 WT (Escherichia coli, UniProt Q9L5C7); assay: biochemical
T2 construct: 29 to 291 of CTX-M-14 (Q9L5C7); His tag with TEV cleavage site (N); made in house; host or cells: E. coli BL21 (DE3) pLysS

CTX-M-14 Y105G = molecular target: T3, CTX-M-14 Y105G (Escherichia coli, UniProt Q9L5C7, Y108G); assay: biochemical
T3 construct: 29 to 291 of CTX-M-14 (Q9L5C7); His tag with TEV cleavage site (N); made in house; host or cells: E. coli BL21 (DE3) pLysS

TEM-1 Y105G = TEM-1 Y105G (Escherichia coli, UniProt P62593, Y103G); assay: In vitro inhibition of nitrocefin hydrolysis and simulation of inhibition curves, TEM-1 Y105G; type: biochemical; conditions: avibactam, simulation Eq 3/9
[12] = system: E. coli KA797 cells carrying BlaC position 105 library; type: cell-based, Escherichia coli; conditions: for Fi AVG (average fitness): average of replicates
TEM-1 WT = TEM-1 WT (Escherichia coli, UniProt P62593); type: biochemical; design: 24 to 286 of TEM-1 (P62593); His tag with TEV cleavage site (N); made in house; host or cells: E. coli BL21 (DE3) pLysS; conditions: avibactam, TEM-1 WT
[13] = system: CC1(C)S[C@@H]2[C@H](NC(=O)C(C(=O)O)c3ccccc3)C(=O)N2[C@H]1C(=O)O; assay: purified protein, by the assay type; conditions: pH 6.4; 25.0 °C
[14] = system: CC1(C)S[C@@H]2[C@H](NC(=O)[C@H](N)c3ccccc3)C(=O)N2[C@H]1C(=O)O; assay: purified protein, by the assay type; conditions: pH 6.4; 25.0 °C
[15] = system: O=C(Cc1cccs1)N[C@@H]1C(=O)N2C(C(=O)O)=C(/C=C/c3ccc([N+](=O)[O-])cc3[N+](=O)[O-])CS[C@H]12; assay: purified protein, by the assay type; conditions: pH 6.4; 25.0 °C
[16] = system: CC1(C)S[C@@H]2[C@H](NC(=O)C(C(=O)O)c3ccccc3)C(=O)N2[C@H]1C(=O)O; assay: purified protein, by the assay type; conditions: pH 6.4; 25.0 °C; remark: listed apart in the source
[17] = avibactam, simulation Eq 3/9, CTX-M-14 WT
[18] = avibactam, simulation Eq 3/9, CTX-M-14 Y105G

Q: Which results are given for `NC(=O)[C@@H]1CC[C@@H]2CN1C(=O)N2OS(=O)(=O)O` [avibactam]?
A: MIC of inhibitor [1]: 16 µg/mL; MIC of inhibitor [2]: 0.5 µg/mL; MIC of inhibitor [3]: 0.5 µg/mL; MIC of inhibitor [4]: 0.5 µg/mL; MIC of inhibitor [5]: 1 µg/mL; MIC of inhibitor [6]: 64 µg/mL; MIC of inhibitor [7]: 32 µg/mL; MIC of inhibitor [8]: 1 µg/mL; MIC of inhibitor [9]: 2 µg/mL; MIC of inhibitor [10]: 4 µg/mL; MIC of inhibitor [11]: 16 µg/mL; k2 (BlaC WT): 6.5 and 6.5 10^−2 s^−1; k-2 (BlaC WT): 0.1 and 0.1 10^−3 s^−1; Ki (CTX-M-14 WT): 470 nM; k2 (CTX-M-14 WT; [17]): 6.6 10^−2 s^−1; k-2 (CTX-M-14 WT; [17]): 0.3 10^−3 s^−1; k1 (CTX-M-14 WT; avibactam, simulation Eq 9, CTX-M-14 WT): 1 µM⁻¹ s⁻¹; Ki (CTX-M-14 Y105G): 50 µM; k2 (CTX-M-14 Y105G; [18]): 4.6 10^−2 s^−1; k-2 (CTX-M-14 Y105G; [18]): 0.25 10^−3 s^−1; k2 (TEM-1 Y105G): 5 10^−2 s^−1; k-2 (TEM-1 Y105G): 0.75 10^−3 s^−1; Fi AVG (average fitness) ([12]; AA 105 Ala (BlaC I105A), relative to WT Ile): 0.716; Significance of average fitness ([12]; AA 105 Arg (BlaC I105R)): +; Fi AVG (average fitness) ([12]; AA 105 Arg (BlaC I105R), relative to WT Ile): 2.021; Fi AVG (average fitness) ([12]; AA 105 Asn (BlaC I105N), relative to WT Ile): -0.462; Fi AVG (average fitness) ([12]; AA 105 Asp (BlaC I105D), relative to WT Ile): 0.306; Fi AVG (average fitness) ([12]; AA 105 Cys (BlaC I105C), relative to WT Ile): 0.512; Significance of average fitness ([12]; AA 105 Gln (BlaC I105Q)): +; Fi AVG (average fitness) ([12]; AA 105 Gln (BlaC I105Q), relative to WT Ile): 1.438; Fi AVG (average fitness) ([12]; AA 105 Glu (BlaC I105E), relative to WT Ile): 0.205; Significance of average fitness ([12]; AA 105 Gly (BlaC I105G)): +; Fi AVG (average fitness) ([12]; AA 105 Gly (BlaC I105G), relative to WT Ile): 2.428; Fi AVG (average fitness) ([12]; AA 105 His (BlaC I105H), relative to WT Ile): 0.810; Fi AVG (average fitness) ([12]; AA 105 Ile (BlaC WT, reference)): 0.000; Significance of average fitness ([12]; AA 105 Leu (BlaC I105L)): +; Fi AVG (average fitness) ([12]; AA 105 Leu (BlaC I105L), relative to WT Ile): 1.665; Significance of average fitness ([12]; AA 105 Lys (BlaC I105K)): +; Fi AVG (average fitness) ([12]; AA 105 Lys (BlaC I105K), relative to WT Ile): 0.933; Fi AVG (average fitness) ([12]; AA 105 Met (BlaC I105M), relative to WT Ile): 0.542; Significance of average fitness ([12]; AA 105 Phe (BlaC I105F)): +; Fi AVG (average fitness) ([12]; AA 105 Phe (BlaC I105F), relative to WT Ile): 2.659; Significance of average fitness ([12]; AA 105 Pro (BlaC I105P)): -; Fi AVG (average fitness) ([12]; AA 105 Pro (BlaC I105P), relative to WT Ile): -1.222; Significance of average fitness ([12]; AA 105 Ser (BlaC I105S)): +; Fi AVG (average fitness) ([12]; AA 105 Ser (BlaC I105S), relative to WT Ile): 1.393; Significance of average fitness ([12]; AA 105 Thr (BlaC I105T)): +; Fi AVG (average fitness) ([12]; AA 105 Thr (BlaC I105T), relative to WT Ile): 1.333; Significance of average fitness ([12]; AA 105 Trp (BlaC I105W)): +; Fi AVG (average fitness) ([12]; AA 105 Trp (BlaC I105W), relative to WT Ile): 2.468; Significance of average fitness ([12]; AA 105 Tyr (BlaC I105Y)): +; Fi AVG (average fitness) ([12]; AA 105 Tyr (BlaC I105Y), relative to WT Ile): 3.416; Fi AVG (average fitness) ([12]; AA 105 Val (BlaC I105V), relative to WT Ile): -0.187; WT abs Fi 1 ([12]; absolute fitness of BlaC WT (Ile 105), replicate 1): -1.354; WT abs Fi 2 ([12]; absolute fitness of BlaC WT (Ile 105), replicate 2): -1.584; WT abs Fi 3 ([12]; absolute fitness of BlaC WT (Ile 105), replicate 3): -0.942; k2 (TEM-1 WT; simulation Eq 3/9): 5.7 10^−2 s^−1; k-2 (TEM-1 WT; simulation Eq 3/9): 0.2 10^−3 s^−1; k1 (TEM-1 WT; simulation Eq 9): 1 µM⁻¹ s⁻¹

Q: How did the Km [13] turn out when (Escherichia coli) was run?
A: Its Km is 20 ± 2 µM.

Q: What about the kcat [13] of the same molecule?
A: Its kcat is 31 ± 2 s⁻¹.

Q: And the kcat/Km [13]?
A: Its kcat/Km is 1.55e+06 ± 180000 M⁻¹ s⁻¹.

Q: And the Km [14]?
A: The Km was 76 ± 2 µM.

Q: And the kcat [14]?
A: The kcat was 103 ± 1 s⁻¹.

Q: What about the kcat/Km [14] of the same molecule?
A: Its kcat/Km is 1.36e+06 ± 80000 M⁻¹ s⁻¹.

Q: And the Km [15]?
A: Its Km is 79 ± 1 µM.

Q: What about the kcat [15] of the same molecule?
A: The kcat was 576 ± 5 s⁻¹.

Q: And the kcat/Km [15]?
A: The kcat/Km was 7.31e+06 ± 80000 M⁻¹ s⁻¹.

Q: And the Km [16]?
A: Its Km is 10.0 ± 0.7 µM.

Q: What about the kcat [16] of the same molecule?
A: Its kcat is 92 ± 2 s⁻¹.

Q: And the kcat/Km [16]?
A: Its kcat/Km is 9.15e+06 ± 660000 M⁻¹ s⁻¹.
